Patent publication US10420748B2, “Methods of treatment associated with the granulocyte colony-stimulating factor receptor” (LIGAND PHARMACEUTICALS INCORPORATED, priority 2013, dated 2019)

Columns and labels:
HL-60 cells [1] = experiment: Cell growth inhibition (ATPlite), HL-60; type: cell-based, human; conditions: HL-60, 72 hours
Experimental: (§1) The human acute promyelocytic leukemia cell line HL-60, the acute myeloid leukemia cell line Kasumi-1, the lung carcinoma cell line A549, the embryonic kidney cell line HEK293, and the hepatocellular carcinoma cell line HepG2 were purchased from ATCC. HL-60 and A549 cells were grown in RPMI-1640 media containing 10% fetal bovine serum (FBS). Kasumi-1 cells were grown in RPMI-1640 media containing 20% FBS. HEK293 and HepG2 cells were grown in Eagles Minimal Essential Media containing 10% FBS. Cells were plated in 96-well microtiter plates at a density of either 2000 cells/well (A549 cells) or 5000 cells/well and incubated overnight at 37° C. Cell growth was measured by the ATPlite™ istep Kit (PerkinElmer, Waltham, Mass.) according to the manufacturer's instructions. ATPlite™ uses firefly luciferase to indirectly quantify the level of adenosine triphosphate (ATP) as a measure of proliferation and cytotoxicity of cultured mammalian cells. […] Luminescence, quantified as relative luciferase units (RLU), was measured on an Envision plate reader (PerkinElmer). For each replicate, the mean and standard deviation of the RLU at each concentration of compound was calculated. […]
HL-60 cells were plated in 96-well microtiter plates in RPMI-1640 media containing 10% FBS at a density of 5000 cells/well. […] Cell growth was measured using the ATPlite™ istep Kit. […]

Kasumi-1 cells = experiment: Cell growth inhibition (ATPlite), Kasumi-1; type: cell-based; conditions: Homo sapiens, Kasumi-1, 72 hours, mean±SEM, n = 3, read-out: Inhibition of Tumor Cell Growth (IC50, μM) Kasumi-1
Experimental: as §1, with “cells. Compounds were diluted in the appropriate cell culture media for each cell type at incremental concentrations ranging from 0.1 nM to 100 tiM.” for “cells.”

A549 cells = experiment: Cell growth inhibition (ATPlite), A549; type: cell-based; conditions: Homo sapiens, A549, 72 hours, mean±SEM, n = 3, read-out: Inhibition of Tumor Cell Growth (IC50, μM) A549
Experimental: as §1, with “cells. Compounds were diluted in the appropriate cell culture media for each cell type at incremental concentrations ranging from 0.1 nM to 100 tiM.” for “cells.”

HEK293 cells = experiment: Cell growth inhibition (ATPlite), HEK293; type: cell-based; conditions: Homo sapiens, HEK293, 72 hours, mean±SEM, n = 3, read-out: Inhibition of Tumor Cell Growth (IC50, μM) HEK293
Experimental: as §1, with “cells. Compounds were diluted in the appropriate cell culture media for each cell type at incremental concentrations ranging from 0.1 nM to 100 tiM.” for “cells.”

HEPG2 cells = experiment: Cell growth inhibition (ATPlite), HEPG2; type: cell-based; conditions: Homo sapiens, HEPG2, 72 hours, mean±SEM, n = 3, read-out: Inhibition of Tumor Cell Growth (IC50, μM) HEPG2
Experimental: as §1, with “cells. Compounds were diluted in the appropriate cell culture media for each cell type at incremental concentrations ranging from 0.1 nM to 100 tiM.” for “cells.”

HL-60 cells [2] = experiment: Induction of apoptosis (Annexin V/Sytox Red, FACS); type: cell-based, human; conditions: HL-60, 10 μM, 48 hours, versus vehicle (DMSO), FIG. 2
Experimental: HL-60 cells were incubated under similar conditions to the cell growth assay described above (i.e. 50,000 cell/well of a 24-well plate, incubated in cell culture media in the presence of vehicle or compound for 48 hours at 37° C. in an incubator with 5% CO2). Apoptosis was determined by using Annexin V/Sytox Red staining (Life Technologies/Invitrogen) followed by assaying with fluorescence-activated cell sorting (FACS) according to standard protocols. In this assay, vehicle constituted DMSO and the test compound (Compound 101) was diluted to 10 μM with cell culture media from a 10 mM stock solution of Compound 101 in DMSO. The results of the apoptosis assay are described in FIG. 2. […] Compound 101 decreased the number of viable cells in the assay by over 60% and produced nearly a 50% increase in necrotic cells and over a 15% increase in apoptotic cells.

Cynomolgus monkeys = experiment: Blood cell induction (peripheral blood neutrophils); type: in vivo
Experimental: Test compound was evaluated in an animal model for the ability to increase blood cell count, and particularly peripheral blood neutrophils, according to the following protocol. A test compound (Compound 101) was formulated in DMSO:PEG400:PBS at a concentration of 2 mg/mL. Cynomolgus monkeys where then dosed with either vehicle or the test compound via an IV injection for three days. Doses were administered in the morning and then at 5, and 10 hours later. On Day four, a single dose was administered. Blood samples were then collected at the start of the experiment, at Day 4 at 3 hours, 6 hours, and 9 hours after the single dose, and at Day 7. Blood samples were collected and analyzed on a commercial hematology system (ADVIA 2120). The results for neutrophil evaluation are graphically represented in FIG. 3 for both vehicle and Compound 101.

**Q.** What does the source list for `Cc1cc(C)cc(N2C(=O)/C(=C(\NNC(=O)CCC(N)=O)c3ccccc3)c3ccc(C(F)(F)F)cc32)c1` [Compound 101]?
**A.** effect on HL-60 cell growth (dose response curve, FIG. 1) (HL-60 cells [1]; versus Blank): dose-dependent effect; IC50 (HL-60 cells [1]; Homo sapiens, mean±SEM, n = 5, read-out: Inhibition of Tumor Cell Growth (IC50, μM) HL-60): 5 ± 2.8 µM; IC50 (Kasumi-1 cells): 12.1 ± 2.4 µM; IC50 (A549 cells): 6.1 ± 2.5 µM; IC50 (HEK293 cells): 1.4 ± 0.04 µM; IC50 (HEPG2 cells): 0.9 ± 0.1 µM; increase in apoptotic cells (HL-60 cells [2]): > 15%; increase in necrotic cells (HL-60 cells [2]): ~50%; cytotoxicity at 10 µM (HL-60 cells [2]; Homo sapiens, read-out: decrease in number of viable cells): > 60%; neutrophil count following three days without dosing (Cynomolgus monkeys; Day 7 time point): returned to a level similar to the vehicle; significance of neutrophil count increase versus vehicle (Cynomolgus monkeys; IV, Day 4, 9 hours after the single dose): statistically significant; neutrophil count versus vehicle after the three day dosing phase (Cynomolgus monkeys; IV, three doses daily for three days, single dose Day 4, Day 4 samples, FIG. 3): higher neutrophil count than vehicle
